Laboratory results taken from paper PMC10648875 (Antimicrobial Agents and Chemotherapy, 2023).
In brackets after ≈: the same amount, converted by molar mass.

Test system: isogenic efflux and porin mutants of K. pneumoniae and their NDM-1-producing derivatives
Test: MIC against isogenic efflux and porin mutants (Table 9)
Assay type: cell-based
Conditions: for BLI MIC / MIC: BLI alone; for MIC: Klebsiella pneumoniae
[1] = KPM1026a, Wild type, ATCC 43816, β-lactamase None, BLI 0 µg/mL
[2] = KPM1026a, Wild type, ATCC 43816, β-lactamase None, BLI 4 µg/mL
[3] = KPM1026a, Wild type, ATCC 43816, β-lactamase None, BLI 8 µg/mL
[4] = KPM1027, ramR*, β-lactamase None, BLI 0 µg/mL
[5] = KPM1027, ramR*, β-lactamase None, BLI 4 µg/mL
[6] = KPM1027, ramR*, β-lactamase None, BLI 8 µg/mL
[7] = KPM1281, Wild type, ATCC 43816, NDM-1, BLI 0 µg/mL
[8] = KPM1281, Wild type, ATCC 43816, NDM-1, BLI 4 µg/mL
[9] = KPM1281, Wild type, ATCC 43816, NDM-1, BLI 8 µg/mL
[10] = KPM1282, ramR*, NDM-1, BLI 0 µg/mL
[11] = KPM1282, ramR*, NDM-1, BLI 4 µg/mL
[12] = KPM1282, ramR*, NDM-1, BLI 8 µg/mL
[13] = KPM2013, mpK36_2040 ΔompK35, β-lactamase None, BLI 0 µg/mL
[14] = KPM2013, mpK36_2040 ΔompK35, β-lactamase None, BLI 4 µg/mL
[15] = KPM2013, mpK36_2040 ΔompK35, β-lactamase None, BLI 8 µg/mL
[16] = KPM2013, mpK36_2040 ΔompK35, β-lactamase None
[17] = KPM2040, mpK36_2040*, β-lactamase None, BLI 0 µg/mL
[18] = KPM2040, mpK36_2040*, β-lactamase None, BLI 4 µg/mL
[19] = KPM2040, mpK36_2040*, β-lactamase None, BLI 8 µg/mL
[20] = KPM2040, mpK36_2040*, β-lactamase None
[21] = KPM3820, mpK36_2040*, NDM-1, BLI 0 µg/mL
[22] = KPM3820, mpK36_2040*, NDM-1, BLI 4 µg/mL
[23] = KPM3820, mpK36_2040*, NDM-1, BLI 8 µg/mL
[24] = KPM3825, mpK36_2040 ΔompK35, NDM-1, BLI 0 µg/mL
[25] = KPM3825, mpK36_2040 ΔompK35, NDM-1, BLI 4 µg/mL
[26] = KPM3825, mpK36_2040 ΔompK35, NDM-1, BLI 8 µg/mL
[27] = KPM3825, mpK36_2040 ΔompK35, NDM-1

NCCN[C@H]1CC[C@H](CC(=O)N[C@H]2Cc3cccc(C(=O)O)c3OB2O)CC1 [Taniborbactam, taniborbactam]
Cefepime MIC with BLIs [1]: 0.03 µg/mL | Meropenem MIC with BLIs [1]: 0.03 µg/mL | Cefepime MIC with BLIs [2]: 0.03 µg/mL | Meropenem MIC with BLIs [2]: 0.03 µg/mL | Cefepime MIC with BLIs [3]: 0.03 µg/mL | Meropenem MIC with BLIs [3]: 0.03 µg/mL | BLI MIC (KPM1026a, Wild type, ATCC 43816, β-lactamase None): >64 µg/mL | Cefepime MIC with BLIs [4]: 0.25 µg/mL | Meropenem MIC with BLIs [4]: 0.06 µg/mL | Cefepime MIC with BLIs [5]: 0.25 µg/mL | Meropenem MIC with BLIs [5]: 0.06 µg/mL | Cefepime MIC with BLIs [6]: 0.25 µg/mL | Meropenem MIC with BLIs [6]: 0.06 µg/mL | BLI MIC (KPM1027, ramR*, β-lactamase None): >64 µg/mL | Cefepime MIC with BLIs [7]: 16 µg/mL | Meropenem MIC with BLIs [7]: 32 µg/mL | Cefepime MIC with BLIs [8]: 0.25 µg/mL | Meropenem MIC with BLIs [8]: 0.125 µg/mL | Cefepime MIC with BLIs [9]: 0.125 µg/mL | Meropenem MIC with BLIs [9]: 0.06 µg/mL | BLI MIC (KPM1281, Wild type, ATCC 43816, NDM-1): >64 µg/mL | Cefepime MIC with BLIs [10]: 32 µg/mL | Meropenem MIC with BLIs [10]: 64 µg/mL | Cefepime MIC with BLIs [11]: 0.5 µg/mL | Meropenem MIC with BLIs [11]: 0.25 µg/mL | Cefepime MIC with BLIs [12]: 0.5 µg/mL | Meropenem MIC with BLIs [12]: 0.125 µg/mL | BLI MIC (KPM1282, ramR*, NDM-1): >64 µg/mL | Cefepime MIC with BLIs [13]: 0.5 µg/mL | Meropenem MIC with BLIs [13]: 0.25 µg/mL | Cefepime MIC with BLIs [14]: 0.5 µg/mL | Meropenem MIC with BLIs [14]: 0.25 µg/mL | Cefepime MIC with BLIs [15]: 0.5 µg/mL | Meropenem MIC with BLIs [15]: 0.25 µg/mL | BLI MIC [16]: >64 µg/mL | Cefepime MIC with BLIs [17]: 0.125 µg/mL | Meropenem MIC with BLIs [17]: 0.125 µg/mL | Cefepime MIC with BLIs [18]: 0.125 µg/mL | Meropenem MIC with BLIs [18]: 0.125 µg/mL | Cefepime MIC with BLIs [19]: 0.125 µg/mL | Meropenem MIC with BLIs [19]: 0.125 µg/mL | BLI MIC [20]: >64 µg/mL | Cefepime MIC with BLIs [21]: 128 µg/mL | Meropenem MIC with BLIs [21]: 128 µg/mL | Cefepime MIC with BLIs [22]: 4 µg/mL | Meropenem MIC with BLIs [22]: 8 µg/mL | Cefepime MIC with BLIs [23]: 2 µg/mL | Meropenem MIC with BLIs [23]: 4 µg/mL | BLI MIC (KPM3820, mpK36_2040*, NDM-1): >64 µg/mL | Cefepime MIC with BLIs [24]: 256 µg/mL | Meropenem MIC with BLIs [24]: 256 µg/mL | Cefepime MIC with BLIs [25]: 8 µg/mL | Meropenem MIC with BLIs [25]: 32 µg/mL | Cefepime MIC with BLIs [26]: 4 µg/mL | Meropenem MIC with BLIs [26]: 16 µg/mL | BLI MIC [27]: >64 µg/mL

O=C(O)c1c(F)ccc2c1OB(O)[C@@H]1C[C@H]21 [Xeruborbactam, xeruborbactam]
Cefepime MIC with BLIs [1]: 0.03 µg/mL | Meropenem MIC with BLIs [1]: 0.03 µg/mL | Cefepime MIC with BLIs [2]: 0.015 µg/mL | Meropenem MIC with BLIs [2]: 0.015 µg/mL | Cefepime MIC with BLIs [3]: 0.002 µg/mL | Meropenem MIC with BLIs [3]: 0.008 µg/mL | Cefepime MIC with BLIs [4]: 0.25 µg/mL | Meropenem MIC with BLIs [4]: 0.06 µg/mL | Cefepime MIC with BLIs [5]: 0.125 µg/mL | Meropenem MIC with BLIs [5]: 0.015 µg/mL | Cefepime MIC with BLIs [6]: 0.015 µg/mL | Meropenem MIC with BLIs [6]: 0.004 µg/mL | Cefepime MIC with BLIs [7]: 16 µg/mL | Meropenem MIC with BLIs [7]: 32 µg/mL | Cefepime MIC with BLIs [8]: 0.03 µg/mL | Meropenem MIC with BLIs [8]: 0.06 µg/mL | Cefepime MIC with BLIs [9]: 0.008 µg/mL | Meropenem MIC with BLIs [9]: 0.004 µg/mL | Cefepime MIC with BLIs [10]: 32 µg/mL | Meropenem MIC with BLIs [10]: 64 µg/mL | Cefepime MIC with BLIs [11]: 0.25 µg/mL | Meropenem MIC with BLIs [11]: 0.125 µg/mL | Cefepime MIC with BLIs [12]: 0.06 µg/mL | Meropenem MIC with BLIs [12]: 0.03 µg/mL | Cefepime MIC with BLIs [13]: 0.5 µg/mL | Meropenem MIC with BLIs [13]: 0.25 µg/mL | Cefepime MIC with BLIs [14]: 0.25 µg/mL | Meropenem MIC with BLIs [14]: 0.125 µg/mL | Cefepime MIC with BLIs [15]: 0.06 µg/mL | Meropenem MIC with BLIs [15]: 0.06 µg/mL | Cefepime MIC with BLIs [17]: 0.125 µg/mL | Meropenem MIC with BLIs [17]: 0.125 µg/mL | Cefepime MIC with BLIs [18]: 0.06 µg/mL | Meropenem MIC with BLIs [18]: 0.06 µg/mL | Cefepime MIC with BLIs [19]: 0.015 µg/mL | Meropenem MIC with BLIs [19]: 0.03 µg/mL | Cefepime MIC with BLIs [21]: 128 µg/mL | Meropenem MIC with BLIs [21]: 128 µg/mL | Cefepime MIC with BLIs [22]: 1 µg/mL | Meropenem MIC with BLIs [22]: 4 µg/mL | Cefepime MIC with BLIs [23]: 0.5 µg/mL | Meropenem MIC with BLIs [23]: 1 µg/mL | Cefepime MIC with BLIs [24]: 256 µg/mL | Meropenem MIC with BLIs [24]: 256 µg/mL | Cefepime MIC with BLIs [25]: 2 µg/mL | Meropenem MIC with BLIs [25]: 8 µg/mL | Cefepime MIC with BLIs [26]: 1 µg/mL | Meropenem MIC with BLIs [26]: 2 µg/mL | MIC (ATCC43816, KPM1026a, Wild type, ATCC 43816, β-lactamase None): 16 µg/mL (≈ 72.1 µM) | MIC (ATCC43816, KPM1281, Wild type, ATCC 43816, NDM-1): 16 µg/mL (≈ 72.1 µM) | MIC [16]: 32 µg/mL (≈ 144 µM) | MIC [20]: 32 µg/mL (≈ 144 µM) | MIC (KPM3820, mpK36_2040*, NDM-1): 32 µg/mL (≈ 144 µM) | MIC [27]: 32 µg/mL (≈ 144 µM)
